Measurements published in patent US11918592B2, “Inhibitors of cyclin dependent kinase 7 (CDK7)” (Syros Pharmaceuticals, Inc., priority 2018, dated 2024).

Tests used:
[1] = target: CDK12 (aa686-1082)/Cyclin K complex (Homo sapiens, UniProt Q9NYV4); assay: CDK12 kinase inhibition assay (Caliper/LabChip EZ Reader)
[2] = tested on: COV504 cells; assay: Inhibition of cell proliferation, CyQUANT Direct, COV504; type: cell-based; details: Homo sapiens; COV504 ovarian cancer cells, 72-hour; read-out: COV 504 proliferation calculated IC50
[3] = target: CDK9/Cyclin T1 complex (Homo sapiens, UniProt P50750); assay: CDK9 kinase inhibition assay (Caliper/LabChip EZ Reader)
CDK9/Cyclin T1 complex, sequence (P50750 whole entry): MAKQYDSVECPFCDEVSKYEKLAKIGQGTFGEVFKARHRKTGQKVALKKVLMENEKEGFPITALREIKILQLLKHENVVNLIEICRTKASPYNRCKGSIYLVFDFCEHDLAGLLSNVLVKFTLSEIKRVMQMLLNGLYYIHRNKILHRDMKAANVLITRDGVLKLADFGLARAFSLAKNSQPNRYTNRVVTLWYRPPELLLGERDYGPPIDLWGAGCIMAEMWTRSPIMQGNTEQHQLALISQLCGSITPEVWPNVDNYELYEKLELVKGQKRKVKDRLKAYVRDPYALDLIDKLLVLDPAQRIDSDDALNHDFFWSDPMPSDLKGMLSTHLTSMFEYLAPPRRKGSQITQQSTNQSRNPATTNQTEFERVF
CDK9/Cyclin T1 complex, sequence (O60563 whole entry partner): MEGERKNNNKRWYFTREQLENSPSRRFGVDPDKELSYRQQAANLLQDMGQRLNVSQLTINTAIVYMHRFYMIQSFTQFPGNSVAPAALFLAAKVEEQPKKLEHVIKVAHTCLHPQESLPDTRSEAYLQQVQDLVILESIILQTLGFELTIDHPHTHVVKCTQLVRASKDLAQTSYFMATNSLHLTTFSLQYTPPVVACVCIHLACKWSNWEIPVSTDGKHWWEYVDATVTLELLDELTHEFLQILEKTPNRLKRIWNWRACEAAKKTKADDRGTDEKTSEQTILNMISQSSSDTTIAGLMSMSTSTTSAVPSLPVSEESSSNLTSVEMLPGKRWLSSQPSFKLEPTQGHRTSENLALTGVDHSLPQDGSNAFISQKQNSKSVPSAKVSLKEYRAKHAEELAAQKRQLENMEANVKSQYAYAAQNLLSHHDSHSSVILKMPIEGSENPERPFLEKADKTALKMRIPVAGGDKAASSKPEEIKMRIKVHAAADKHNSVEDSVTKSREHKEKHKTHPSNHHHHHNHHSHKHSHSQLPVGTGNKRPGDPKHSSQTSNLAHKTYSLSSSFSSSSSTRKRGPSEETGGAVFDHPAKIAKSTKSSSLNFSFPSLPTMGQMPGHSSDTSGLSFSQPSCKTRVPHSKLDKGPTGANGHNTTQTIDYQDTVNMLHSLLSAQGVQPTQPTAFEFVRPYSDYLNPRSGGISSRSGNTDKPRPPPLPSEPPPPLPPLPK
Procedure: (§1) Compounds of the invention were assayed for inhibition of CDK7, CDK9, CDK12, and CDK2 activity at Biortus Biosciences (Jiangyin, Jiangsu Province, P.R. of China) using kinase assays for each CDK developed with a Caliper/LabChip EZ Reader (Perkin Elmer, Waltham, MA).
(§2) Furthermore, the CDK9 inhibition assay used CDK9/Cyclin T1 complex (8 nM) and “5-FAM-CDK9tide” peptide substrate (2 μM, synthesized fluorophore-labeled peptide with the following sequence: 5-FAM-GSRTPMY-NH2 (SEQ ID NO:2) where 5-FAM is defined above and NH2 signifies a C-terminal amide) with 10 mM MgCl2 in the buffer composition listed above. The CDK12 inhibition assay used CDK12 (aa686-1082)/Cyclin K complex (50 nM) and “5-FAM-CDK9tide” (2 μM) as defined above, with 2 mM MgCl2 in the buffer composition above. Additionally, the CDK2 inhibition assay used CDK2/Cyclin E1 complex (0.5 nM) and “5-FAM-CDK7tide” (2 μM) as defined above, with 2 mM MgCl2 in the buffer composition listed above.
(§3) The incubation period at 27° C. for each CDK inhibition assay was chosen such that the fraction of phosphorylated peptide product produced in each assay, relative to the total peptide concentration, was approximately 20% (±5%) for the uninhibited kinase (35 min. for CDK7, 35 min. for CDK2, 3 hr. for CDK12, 15 min. for CDK9).

[4] = target: CDK2/Cyclin E1 complex (Homo sapiens, UniProt P24941); assay: CDK2 kinase inhibition assay (Caliper/LabChip EZ Reader)
[5] = tested on: MB453 cells; assay: Inhibition of cell proliferation, CyQUANT Direct, MB453; type: cell-based, human; details: Homo sapiens; MB453 triple negative breast cancer cells, 72-hour; read-out: MB 453 proliferation calculated IC50
[6] = tested on: COV318 cells; assay: Inhibition of cell proliferation, CyQUANT Direct, COV318; type: cell-based; details: Homo sapiens; COV318 ovarian cancer cells, 72-hour; read-out: COV 318 proliferation calculated IC50
[7] = tested on: HCC70 cells; assay: Inhibition of cell proliferation, CyQUANT Direct, HCC70; type: cell-based, human; details: Homo sapiens; HCC70 triple negative breast cancer cells, 72-hour; read-out: HCC 70 proliferation calculated IC50
[8] = target: CDK7/Cyclin H/MAT1 complex (Homo sapiens, UniProt P50613); assay: CDK7 kinase inhibition assay (Caliper/LabChip EZ Reader)
CDK7/Cyclin H/MAT1 complex, sequence (P50613 whole entry): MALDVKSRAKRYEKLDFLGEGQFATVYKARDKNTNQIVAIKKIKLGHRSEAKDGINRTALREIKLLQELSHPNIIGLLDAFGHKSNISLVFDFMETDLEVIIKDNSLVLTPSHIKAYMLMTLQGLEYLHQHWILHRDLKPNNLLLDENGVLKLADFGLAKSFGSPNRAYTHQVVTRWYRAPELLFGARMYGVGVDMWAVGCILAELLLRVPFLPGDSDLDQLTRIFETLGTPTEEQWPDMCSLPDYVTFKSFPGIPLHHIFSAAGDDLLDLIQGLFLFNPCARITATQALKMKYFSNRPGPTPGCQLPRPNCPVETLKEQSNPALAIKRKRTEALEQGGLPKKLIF
CDK7/Cyclin H/MAT1 complex, sequence (P51946 whole entry partner): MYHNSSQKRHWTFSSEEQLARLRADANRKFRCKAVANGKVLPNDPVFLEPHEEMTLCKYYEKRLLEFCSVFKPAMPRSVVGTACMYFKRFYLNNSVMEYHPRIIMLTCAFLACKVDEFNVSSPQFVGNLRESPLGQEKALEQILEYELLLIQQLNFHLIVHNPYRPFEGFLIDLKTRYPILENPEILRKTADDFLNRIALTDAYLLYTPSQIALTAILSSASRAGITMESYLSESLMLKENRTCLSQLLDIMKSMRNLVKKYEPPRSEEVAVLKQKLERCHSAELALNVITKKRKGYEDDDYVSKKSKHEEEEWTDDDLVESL
CDK7/Cyclin H/MAT1 complex, sequence (P51948 whole entry partner): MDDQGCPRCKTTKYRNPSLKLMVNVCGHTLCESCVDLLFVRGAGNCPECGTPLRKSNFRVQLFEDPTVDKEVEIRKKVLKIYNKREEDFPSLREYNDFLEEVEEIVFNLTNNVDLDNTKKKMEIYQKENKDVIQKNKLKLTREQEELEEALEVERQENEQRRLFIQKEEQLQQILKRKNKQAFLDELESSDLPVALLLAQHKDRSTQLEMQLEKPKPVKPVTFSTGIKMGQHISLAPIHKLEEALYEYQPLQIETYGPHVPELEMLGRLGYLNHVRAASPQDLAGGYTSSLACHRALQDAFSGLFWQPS
Procedure: as §1, §2, §3

CDK12 (aa686-1082)/Cyclin K complex, sequence (Q9NYV4 686-1082): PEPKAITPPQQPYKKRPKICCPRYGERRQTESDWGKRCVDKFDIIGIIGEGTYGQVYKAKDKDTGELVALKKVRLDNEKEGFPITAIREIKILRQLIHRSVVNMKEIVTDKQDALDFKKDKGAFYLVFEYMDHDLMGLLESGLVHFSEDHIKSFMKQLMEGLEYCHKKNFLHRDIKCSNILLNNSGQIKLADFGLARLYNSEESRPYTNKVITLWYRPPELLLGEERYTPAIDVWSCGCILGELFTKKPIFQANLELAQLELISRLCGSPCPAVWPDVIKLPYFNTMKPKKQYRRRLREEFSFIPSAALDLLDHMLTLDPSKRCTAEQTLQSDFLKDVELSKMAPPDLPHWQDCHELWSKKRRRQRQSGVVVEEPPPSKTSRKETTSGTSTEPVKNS
CDK12 (aa686-1082)/Cyclin K complex, sequence (O75909 whole entry partner, the tested form may be a part): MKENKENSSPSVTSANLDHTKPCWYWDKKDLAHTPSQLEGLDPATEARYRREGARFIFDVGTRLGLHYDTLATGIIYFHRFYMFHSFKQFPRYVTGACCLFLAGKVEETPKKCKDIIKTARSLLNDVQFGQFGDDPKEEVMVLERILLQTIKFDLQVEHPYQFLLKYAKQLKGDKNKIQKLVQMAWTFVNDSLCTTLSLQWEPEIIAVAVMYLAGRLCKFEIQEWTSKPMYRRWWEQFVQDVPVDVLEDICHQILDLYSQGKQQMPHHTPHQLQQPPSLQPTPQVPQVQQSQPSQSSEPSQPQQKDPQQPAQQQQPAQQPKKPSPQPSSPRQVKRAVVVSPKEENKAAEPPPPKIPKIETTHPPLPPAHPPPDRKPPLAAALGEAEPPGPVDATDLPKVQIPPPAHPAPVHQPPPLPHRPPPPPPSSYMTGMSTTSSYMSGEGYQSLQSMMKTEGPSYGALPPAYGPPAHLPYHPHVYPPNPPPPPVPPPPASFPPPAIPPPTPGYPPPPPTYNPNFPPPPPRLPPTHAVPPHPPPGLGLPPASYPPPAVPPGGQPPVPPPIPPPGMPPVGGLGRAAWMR

Structure (SMILES): Cc1noc(C)c1-c1ccc2c(-c3nc(N[C@H]4CCC[C@@H]4N4CC[C@@H](F)C4)ncc3C(F)(F)F)c[nH]c2n1 [Compound 148, 4-[6-(3,5-dimethylisoxazol-4-yl)-1H-pyrrolo[2,3-b]pyridin-3-yl]-N-[(1S,2S)-2-[(3R)-3-fluoropyrrolidin-1-yl]cyclopentyl]-5-(trifluoromethyl)pyrimidin-2-amine]
- IC50 [1]: > 500 nM
- IC50 [2]: < 100 nM
- IC50 [3]: > 500 nM
- IC50 [4]: > 500 nM
- IC50 [5]: 100 to 500 nM
- IC50 [6]: > 2000 nM
- IC50 [7]: 100 to 500 nM
- IC50 [8]: < 30 nM

Structure (SMILES): Cc1noc(C)c1-c1ccc2c(-c3nc(N[C@H]4CCC[C@@H]4N4CCCC4)ncc3C(F)(F)F)c[nH]c2c1 [Compound 143, 4-[6-(3,5-dimethylisoxazol-4-yl)-1H-indol-3-yl]-N-[(1S,2S)-2-pyrrolidin-1-ylcyclopentyl]-5-(trifluoromethyl)pyrimidin-2-amine]
- IC50 [1]: > 500 nM
- IC50 [2]: < 100 nM
- IC50 [3]: > 500 nM
- IC50 [4]: > 500 nM
- IC50 [5]: < 100 nM
- IC50 [6]: 500 to 2000 nM
- IC50 [7]: 100 to 500 nM
- IC50 [8]: < 30 nM

Structure (SMILES): N#Cc1ccc2c(-c3nc(N[C@H]4CC[C@@H]4N)ncc3C(F)(F)F)c[nH]c2c1 [Compound 103]
- IC50 [1]: > 500 nM
- IC50 [2]: 100 to 500 nM
- IC50 [3]: > 500 nM
- IC50 [4]: > 500 nM
- IC50 [5]: 100 to 500 nM
- IC50 [6]: 100 to 500 nM
- IC50 [7]: 100 to 500 nM
- IC50 [8]: < 30 nM

Structure (SMILES): C[C@@H]1C[C@H](Nc2ncc(C(F)(F)F)c(-c3c[nH]c4cc(C#N)ccc34)n2)CN1 [Compound 108]
- IC50 [1]: > 500 nM
- IC50 [2]: 500 to 2000 nM
- IC50 [3]: > 500 nM
- IC50 [4]: > 500 nM
- IC50 [5]: 500 to 2000 nM
- IC50 [6]: > 2000 nM
- IC50 [7]: 500 to 2000 nM
- IC50 [8]: 30 to 100 nM

Structure (SMILES): N#Cc1ccc2c(-c3nc(N[C@H]4CC[C@@H]4N4CCCC4)ncc3C(F)(F)F)c[nH]c2c1 [Compound 135, 3-[2-[[(1S,2S)-2-pyrrolidin-1-ylcyclobutyl]-amino]-5-(trifluoromethyl)pyrimidin-4-yl]-1H-indole-6-carbonitrile]
- IC50 [1]: > 500 nM
- IC50 [2]: 500 to 2000 nM
- IC50 [3]: > 500 nM
- IC50 [4]: > 500 nM
- IC50 [5]: 100 to 500 nM
- IC50 [6]: > 2000 nM
- IC50 [7]: > 2000 nM
- IC50 [8]: < 30 nM
